ChEMBL document CHEMBL4387741, “Optimization of novel reversible Bruton's tyrosine kinase inhibitors identified using Tethering-fragment-based screens” (Bioorg Med Chem, 2019)

Assays:
[1] = biological target: Protein kinase C epsilon type (Homo sapiens) (UniProt Q02156); test: Inhibition of wild-type human partial length PRKCE (A378 to P737 residues) expressed in mammalian expression system at 1 uM by Kinomescan method relative to control
[2] = biological target: Serine/threonine-protein kinase Nek4 (Homo sapiens) (UniProt P51957); test: Inhibition of wild-type human full length NEK4 (M1 to F841 residues) expressed in mammalian expression system at 1 uM by Kinomescan method relative to control
[3] = biological target: Mitogen-activated protein kinase 7 (Homo sapiens) (UniProt Q13164); test: Inhibition of wild-type human partial length ERK5 (M1 to A409 residues) expressed in bacterial expression system at 1 uM by Kinomescan method relative to control
[4] = biological target: Aurora kinase B (Homo sapiens) (UniProt Q96GD4); test: Inhibition of wild-type human partial length AURKB (D25 to A303 residues) expressed in mammalian expression system at 1 uM by Kinomescan method relative to control
[5] = biological target: Rhodopsin kinase GRK1 (Homo sapiens) (UniProt Q15835); test: Inhibition of wild-type human full length GRK1 (M1 to S563 residues) expressed in mammalian expression system at 1 uM by Kinomescan method relative to control
[6] = biological target: Serine/threonine-protein kinase STK11 (Homo sapiens) (UniProt Q15831); test: Inhibition of wild-type human full length LKB1 (M1 to Q433 residues) expressed in bacterial expression system at 1 uM by Kinomescan method relative to control
[7] = biological target: RAC-gamma serine/threonine-protein kinase (Homo sapiens) (UniProt Q9Y243); test: Inhibition of wild-type human partial length AKT3 expressed in bacterial expression system at 1 uM by Kinomescan method relative to control
[8] = biological target: Calcium/calmodulin-dependent protein kinase type II subunit gamma (Homo sapiens) (UniProt Q13555); test: Inhibition of wild-type human partial length CAMK2G (R9 to A303 residues) expressed in bacterial expression system at 1 uM by Kinomescan method relative to control
[9] = biological target: Dual specificity protein kinase CLK2 (Homo sapiens) (UniProt P49760); test: Inhibition of wild-type human partial length CLK2 (D144 to R498 residues) expressed in bacterial expression system at 1 uM by Kinomescan method relative to control
[10] = biological target: Activin receptor type-1-like (Homo sapiens) (UniProt P37023); test: Inhibition of wild-type human ACVRL1 (L164 to Q503 residues) expressed in bacterial expression system at 1 uM by Kinomescan method relative to control
[11] = tested on: Receptor-type tyrosine-protein kinase FLT3 (Homo sapiens), P36888 [UNDEFINED MUTATION]; test: Inhibition of human partial length FLT3 ITD/F691L double mutant expressed in bacterial expression system at 1 uM by Kinomescan method relative to control
[12] = biological target: Rho-associated protein kinase 2 (Homo sapiens) (UniProt O75116); test: Inhibition of wild-type human partial length ROCK2 (M1 to T431 residues) expressed in mammalian expression system at 1 uM by Kinomescan method relative to control
[13] = biological target: Serine/threonine-protein kinase Sgk3 (Homo sapiens) (UniProt Q96BR1); test: Inhibition of wild-type human partial length SGK3 (M119 to L496 residues) expressed in mammalian expression system at 1 uM by Kinomescan method relative to control
[14] = tested on: Receptor-type tyrosine-protein kinase FLT3 (Homo sapiens), P36888 [R834Q]; test: Inhibition of human partial length FLT3 R834Q mutant (V592 to Y969 residues) expressed in mammalian expression system at 1 uM by Kinomescan method relative to control
[15] = biological target: Mitogen-activated protein kinase 4 (Homo sapiens) (UniProt P31152); test: Inhibition of wild-type human partial length ERK4 (M1 to L365 residues) expressed in bacterial expression system at 1 uM by Kinomescan method relative to control
[16] = biological target: Serine/threonine-protein kinase 3 (Homo sapiens) (UniProt Q13188); test: Inhibition of wild-type human partial length MST2 (D17 to E318 residues) expressed in bacterial expression system at 1 uM by Kinomescan method relative to control
[17] = biological target: AP2-associated protein kinase 1 (Homo sapiens) (UniProt Q2M2I8); test: Inhibition of human wild-type AAK1 (G25 to L333 residues) expressed in bacterial expression system at 1 uM by Kinomescan method relative to control
[18] = biological target: Serine/threonine-protein kinase 32C (Homo sapiens) (UniProt Q86UX6); test: Inhibition of wild-type human partial length YANK3 (M68 to G486 residues) expressed in bacterial expression system at 1 uM by Kinomescan method relative to control
[19] = Protein binding in rat plasma assessed as unbound fraction at 2 uM by rapid equilibrium dialysis method; format: ADME, cell-free
[20] = biological target: Eukaryotic translation initiation factor 2-alpha kinase 1 (Homo sapiens) (UniProt Q9BQI3); test: Inhibition of wild-type human partial length EIF2AK1 (Q147 to E603 residues) expressed in mammalian expression system at 10 uM by Kinomescan method relative to control
[21] = biological target: Cyclin-dependent kinase-like 3 (Homo sapiens) (UniProt Q8IVW4); test: Inhibition of wild-type human partial length CDKL3 (M1 to D327 residues) expressed in bacterial expression system at 10 uM by Kinomescan method relative to control
[22] = biological target: Bone morphogenetic protein receptor type-2 (Homo sapiens) (UniProt Q13873); test: Inhibition of wild-type human partial length BMPR2 (R179 to Q526 residues) expressed in mammalian expression system at 10 uM by Kinomescan method relative to control
[23] = biological target: Tyrosine-protein kinase TXK (Homo sapiens) (UniProt P42681); test: Inhibition of wild-type human partial length TXK (L238 to W527 residues) expressed in bacterial expression system at 10 uM by Kinomescan method relative to control
[24] = biological target: Calcium/calmodulin-dependent protein kinase type II subunit delta (Homo sapiens) (UniProt Q13557); test: Inhibition of wild-type human partial length CAMK2D (M1 to E329 residues) expressed in bacterial expression system at 10 uM by Kinomescan method relative to control
[25] = biological target: Serine/threonine-protein kinase 16 (Homo sapiens) (UniProt O75716); test: Inhibition of wild-type human partial length STK16 (G11 to I305 residues) expressed in bacterial expression system at 10 uM by Kinomescan method relative to control
[26] = biological target: Cyclin-dependent kinase 15 (Homo sapiens) (UniProt Q96Q40); test: Inhibition of wild-type human full length PFTAIRE2 (M1 to W384 residues) expressed in bacterial expression system at 10 uM by Kinomescan method relative to control
[27] = biological target: Phosphatidylinositol 5-phosphate 4-kinase type-2 gamma (Homo sapiens) (UniProt Q8TBX8); test: Inhibition of wild-type human partial length PIP5K2C (M1 to A421 residues) expressed in mammalian expression system at 10 uM by Kinomescan method relative to control
[28] = biological target: Serine/threonine-protein kinase TAO2 (Homo sapiens) (UniProt Q9UL54); test: Inhibition of wild-type human partial length TAOK2 (M1 to A320 residues) expressed in mammalian expression system at 10 uM by Kinomescan method relative to control

Rhodopsin kinase GRK1 (Homo sapiens), sequence (Q15835 whole entry, the tested form may be a part): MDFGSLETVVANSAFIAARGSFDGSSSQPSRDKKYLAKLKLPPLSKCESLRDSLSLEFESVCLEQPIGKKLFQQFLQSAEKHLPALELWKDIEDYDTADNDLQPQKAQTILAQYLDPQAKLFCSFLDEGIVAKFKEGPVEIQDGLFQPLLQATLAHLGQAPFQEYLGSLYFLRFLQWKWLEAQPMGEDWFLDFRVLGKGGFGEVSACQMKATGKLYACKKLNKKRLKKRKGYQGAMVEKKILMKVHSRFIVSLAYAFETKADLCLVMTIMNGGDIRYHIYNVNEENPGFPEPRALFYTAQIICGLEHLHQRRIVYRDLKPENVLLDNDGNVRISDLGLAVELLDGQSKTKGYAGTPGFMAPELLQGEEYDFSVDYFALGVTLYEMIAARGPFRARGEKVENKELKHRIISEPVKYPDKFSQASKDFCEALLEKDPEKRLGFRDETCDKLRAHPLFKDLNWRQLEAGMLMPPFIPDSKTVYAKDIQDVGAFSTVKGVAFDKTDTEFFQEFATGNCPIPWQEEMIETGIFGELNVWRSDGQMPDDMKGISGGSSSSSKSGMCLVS
Serine/threonine-protein kinase STK11 (Homo sapiens), sequence (Q15831 whole entry, the tested form may be a part): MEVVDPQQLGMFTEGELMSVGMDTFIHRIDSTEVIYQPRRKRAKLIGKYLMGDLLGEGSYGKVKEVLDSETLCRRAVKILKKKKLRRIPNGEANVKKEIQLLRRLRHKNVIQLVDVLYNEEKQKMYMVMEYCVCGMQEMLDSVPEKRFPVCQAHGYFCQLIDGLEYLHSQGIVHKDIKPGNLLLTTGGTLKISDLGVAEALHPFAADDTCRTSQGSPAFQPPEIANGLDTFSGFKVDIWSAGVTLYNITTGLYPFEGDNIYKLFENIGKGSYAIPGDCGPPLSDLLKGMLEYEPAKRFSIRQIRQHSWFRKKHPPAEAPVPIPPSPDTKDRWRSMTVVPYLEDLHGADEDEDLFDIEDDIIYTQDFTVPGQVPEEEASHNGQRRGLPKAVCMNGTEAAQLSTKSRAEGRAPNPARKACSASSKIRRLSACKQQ
RAC-gamma serine/threonine-protein kinase (Homo sapiens), sequence (Q9Y243 whole entry, the tested form may be a part): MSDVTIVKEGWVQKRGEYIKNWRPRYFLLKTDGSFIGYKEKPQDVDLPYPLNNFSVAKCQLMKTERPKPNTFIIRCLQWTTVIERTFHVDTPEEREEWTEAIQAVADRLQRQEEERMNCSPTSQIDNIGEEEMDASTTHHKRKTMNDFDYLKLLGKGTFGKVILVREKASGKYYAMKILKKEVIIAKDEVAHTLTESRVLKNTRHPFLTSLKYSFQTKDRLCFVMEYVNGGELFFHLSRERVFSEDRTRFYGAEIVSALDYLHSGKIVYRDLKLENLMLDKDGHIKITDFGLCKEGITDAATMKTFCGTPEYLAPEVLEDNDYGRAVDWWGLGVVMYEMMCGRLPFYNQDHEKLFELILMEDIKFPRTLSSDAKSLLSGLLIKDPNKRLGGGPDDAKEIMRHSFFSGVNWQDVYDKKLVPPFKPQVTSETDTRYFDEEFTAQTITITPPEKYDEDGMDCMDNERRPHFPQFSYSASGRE
Serine/threonine-protein kinase 16 (Homo sapiens), sequence (O75716 whole entry, the tested form may be a part): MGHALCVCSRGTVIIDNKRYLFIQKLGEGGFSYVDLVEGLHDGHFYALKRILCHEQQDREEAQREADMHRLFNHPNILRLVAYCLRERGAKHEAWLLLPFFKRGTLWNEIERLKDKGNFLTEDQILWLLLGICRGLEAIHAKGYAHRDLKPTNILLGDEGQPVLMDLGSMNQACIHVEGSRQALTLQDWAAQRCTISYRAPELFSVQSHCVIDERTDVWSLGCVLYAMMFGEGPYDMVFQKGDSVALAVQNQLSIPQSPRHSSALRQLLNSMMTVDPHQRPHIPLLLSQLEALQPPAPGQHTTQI
Serine/threonine-protein kinase Sgk3 (Homo sapiens), sequence (Q96BR1 whole entry, the tested form may be a part): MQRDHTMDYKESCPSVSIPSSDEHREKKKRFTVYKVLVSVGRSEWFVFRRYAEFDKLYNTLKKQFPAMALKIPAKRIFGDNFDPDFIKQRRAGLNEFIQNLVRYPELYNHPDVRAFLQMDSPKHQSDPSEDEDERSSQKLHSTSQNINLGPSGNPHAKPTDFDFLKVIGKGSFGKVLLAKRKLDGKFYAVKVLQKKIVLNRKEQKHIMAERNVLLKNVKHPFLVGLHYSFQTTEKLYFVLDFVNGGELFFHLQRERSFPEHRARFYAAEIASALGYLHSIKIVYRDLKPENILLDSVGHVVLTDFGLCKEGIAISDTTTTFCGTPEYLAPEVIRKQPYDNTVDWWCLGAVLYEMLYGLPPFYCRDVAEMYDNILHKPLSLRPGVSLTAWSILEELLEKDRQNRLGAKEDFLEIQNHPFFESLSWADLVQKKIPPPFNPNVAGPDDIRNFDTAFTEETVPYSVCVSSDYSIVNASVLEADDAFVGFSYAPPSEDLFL
Phosphatidylinositol 5-phosphate 4-kinase type-2 gamma (Homo sapiens), sequence (Q8TBX8 whole entry, the tested form may be a part): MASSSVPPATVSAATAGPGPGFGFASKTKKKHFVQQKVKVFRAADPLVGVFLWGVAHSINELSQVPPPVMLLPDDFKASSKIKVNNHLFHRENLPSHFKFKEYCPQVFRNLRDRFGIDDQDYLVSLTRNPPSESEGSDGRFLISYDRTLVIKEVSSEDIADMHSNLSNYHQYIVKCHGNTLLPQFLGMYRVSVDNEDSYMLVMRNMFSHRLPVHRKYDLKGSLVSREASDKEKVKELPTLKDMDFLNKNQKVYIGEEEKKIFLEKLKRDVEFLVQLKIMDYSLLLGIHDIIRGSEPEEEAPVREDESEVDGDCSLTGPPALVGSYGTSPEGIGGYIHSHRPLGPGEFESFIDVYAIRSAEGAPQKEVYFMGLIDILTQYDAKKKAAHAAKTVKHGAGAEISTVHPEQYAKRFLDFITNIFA
Serine/threonine-protein kinase 32C (Homo sapiens), sequence (Q86UX6 whole entry, the tested form may be a part): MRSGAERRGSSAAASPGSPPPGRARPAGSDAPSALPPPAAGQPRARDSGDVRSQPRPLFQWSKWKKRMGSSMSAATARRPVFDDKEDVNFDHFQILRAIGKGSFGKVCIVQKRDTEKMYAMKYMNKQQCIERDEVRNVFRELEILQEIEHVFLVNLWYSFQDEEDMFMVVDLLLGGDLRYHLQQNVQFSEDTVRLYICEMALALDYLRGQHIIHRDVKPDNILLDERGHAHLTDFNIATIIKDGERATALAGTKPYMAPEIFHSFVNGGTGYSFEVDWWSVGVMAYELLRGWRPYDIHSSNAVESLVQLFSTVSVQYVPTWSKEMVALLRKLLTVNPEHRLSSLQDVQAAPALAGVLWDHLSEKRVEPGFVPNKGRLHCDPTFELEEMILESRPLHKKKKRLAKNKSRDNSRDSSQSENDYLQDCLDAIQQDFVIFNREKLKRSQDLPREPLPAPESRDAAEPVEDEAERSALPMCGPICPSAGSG
Eukaryotic translation initiation factor 2-alpha kinase 1 (Homo sapiens), sequence (Q9BQI3 whole entry, the tested form may be a part): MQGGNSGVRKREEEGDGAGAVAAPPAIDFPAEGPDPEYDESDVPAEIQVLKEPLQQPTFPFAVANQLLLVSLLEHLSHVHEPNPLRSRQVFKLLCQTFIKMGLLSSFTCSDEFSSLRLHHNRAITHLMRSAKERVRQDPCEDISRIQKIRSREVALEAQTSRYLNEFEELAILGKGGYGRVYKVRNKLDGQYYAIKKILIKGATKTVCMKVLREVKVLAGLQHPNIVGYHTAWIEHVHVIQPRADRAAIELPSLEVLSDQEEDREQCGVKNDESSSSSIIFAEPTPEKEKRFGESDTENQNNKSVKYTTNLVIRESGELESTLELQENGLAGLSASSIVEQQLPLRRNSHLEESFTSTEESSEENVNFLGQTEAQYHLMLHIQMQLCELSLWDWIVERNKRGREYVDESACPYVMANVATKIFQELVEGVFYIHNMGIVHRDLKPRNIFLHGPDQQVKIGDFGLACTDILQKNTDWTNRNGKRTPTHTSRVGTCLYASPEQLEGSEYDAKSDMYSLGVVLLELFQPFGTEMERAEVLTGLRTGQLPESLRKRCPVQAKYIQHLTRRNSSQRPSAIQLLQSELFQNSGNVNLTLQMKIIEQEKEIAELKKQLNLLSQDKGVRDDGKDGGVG
Activin receptor type-1-like (Homo sapiens), sequence (P37023 whole entry, the tested form may be a part): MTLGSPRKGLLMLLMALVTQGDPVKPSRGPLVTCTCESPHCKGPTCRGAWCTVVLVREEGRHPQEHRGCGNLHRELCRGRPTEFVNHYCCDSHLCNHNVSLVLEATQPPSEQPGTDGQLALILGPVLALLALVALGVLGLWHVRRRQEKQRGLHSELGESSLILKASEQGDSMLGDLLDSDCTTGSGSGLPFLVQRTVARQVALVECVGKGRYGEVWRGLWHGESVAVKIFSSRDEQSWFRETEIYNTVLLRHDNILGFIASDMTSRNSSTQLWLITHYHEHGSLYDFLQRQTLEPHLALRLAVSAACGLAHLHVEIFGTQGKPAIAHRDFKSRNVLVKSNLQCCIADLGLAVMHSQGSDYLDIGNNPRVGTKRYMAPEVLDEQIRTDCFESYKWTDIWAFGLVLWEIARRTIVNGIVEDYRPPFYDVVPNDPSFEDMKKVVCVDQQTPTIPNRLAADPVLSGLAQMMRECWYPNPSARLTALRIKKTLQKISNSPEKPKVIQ
Cyclin-dependent kinase-like 3 (Homo sapiens), sequence (Q8IVW4 whole entry, looked up, the tested form may be a part): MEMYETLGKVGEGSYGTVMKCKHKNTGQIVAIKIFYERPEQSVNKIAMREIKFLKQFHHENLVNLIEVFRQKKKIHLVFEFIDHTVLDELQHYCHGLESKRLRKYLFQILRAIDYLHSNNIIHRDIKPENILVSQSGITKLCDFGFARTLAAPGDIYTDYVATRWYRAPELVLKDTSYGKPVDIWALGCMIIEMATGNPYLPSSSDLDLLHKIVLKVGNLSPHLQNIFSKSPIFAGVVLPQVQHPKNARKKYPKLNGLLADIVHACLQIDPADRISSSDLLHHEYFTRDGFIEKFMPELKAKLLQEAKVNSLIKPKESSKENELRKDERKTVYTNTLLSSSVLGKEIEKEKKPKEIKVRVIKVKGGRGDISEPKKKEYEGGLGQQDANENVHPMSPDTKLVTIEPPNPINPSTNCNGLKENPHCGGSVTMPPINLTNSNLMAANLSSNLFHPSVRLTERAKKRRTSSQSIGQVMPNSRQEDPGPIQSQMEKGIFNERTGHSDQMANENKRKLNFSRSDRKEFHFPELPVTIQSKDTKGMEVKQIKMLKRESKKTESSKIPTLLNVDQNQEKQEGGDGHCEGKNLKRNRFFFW

O=C(Nc1cccc([C@@H]2CN(c3ncnc4[nH]ccc34)CCN2CCO)c1)Nc1c(F)cccc1N1CCCC1
inhibition [1]: 72%
inhibition [2]: 86%
inhibition [3]: 100%
inhibition [4]: 4.4%
inhibition [5]: 78%
inhibition [6]: 87%
inhibition [7]: 100%
inhibition [8]: 99%
inhibition [9]: 86%
inhibition [10]: 100%
inhibition [11]: 4.6%
inhibition [12]: 67%
inhibition [13]: 84%
inhibition [14]: 47%
inhibition [15]: 100%
inhibition [16]: 64%
inhibition [17]: 75%
inhibition [18]: 100%
Fu [19]: 0.13%

O=C(Nc1cccc([C@H]2CCCN(c3ncnc4[nH]ccc34)C2)c1)Nc1ccccc1N1CCCC1
inhibition [20]: 100%
inhibition [21]: 97%
inhibition [22]: 51%
inhibition [23]: 94%
inhibition [24]: 100%
inhibition [25]: 18%
inhibition [26]: 93%
inhibition [27]: 48%
inhibition [28]: 100%
